Laboratory results from publication PMC8317135 (Journal of medicinal chemistry, 2021).
Entries after “also recorded” stand apart in the source; their conditions may differ. Where two headings read alike, the source gives them in different places.

Assays:
[1] = system: CCI-induced mechano-allodynia; conditions: mouse; cited from earlier work
[2] = system: eosinophils in the bronchoalveolar lavage fluid (BALF); assay: Ovalbumin/Aspergillus protease mouse model of allergic asthma, BALF leukocytes; assay type: in vivo; conditions: 2 days post-challenge; for eosinophil counts in the BALF / efficacy in asthma model: 20 μmol kg^−1, i.p. prior to allergen challenge
hERG = hERG (Homo sapiens, UniProt Q12809); assay: cell-based
hERG, sequence (Q12809 whole entry): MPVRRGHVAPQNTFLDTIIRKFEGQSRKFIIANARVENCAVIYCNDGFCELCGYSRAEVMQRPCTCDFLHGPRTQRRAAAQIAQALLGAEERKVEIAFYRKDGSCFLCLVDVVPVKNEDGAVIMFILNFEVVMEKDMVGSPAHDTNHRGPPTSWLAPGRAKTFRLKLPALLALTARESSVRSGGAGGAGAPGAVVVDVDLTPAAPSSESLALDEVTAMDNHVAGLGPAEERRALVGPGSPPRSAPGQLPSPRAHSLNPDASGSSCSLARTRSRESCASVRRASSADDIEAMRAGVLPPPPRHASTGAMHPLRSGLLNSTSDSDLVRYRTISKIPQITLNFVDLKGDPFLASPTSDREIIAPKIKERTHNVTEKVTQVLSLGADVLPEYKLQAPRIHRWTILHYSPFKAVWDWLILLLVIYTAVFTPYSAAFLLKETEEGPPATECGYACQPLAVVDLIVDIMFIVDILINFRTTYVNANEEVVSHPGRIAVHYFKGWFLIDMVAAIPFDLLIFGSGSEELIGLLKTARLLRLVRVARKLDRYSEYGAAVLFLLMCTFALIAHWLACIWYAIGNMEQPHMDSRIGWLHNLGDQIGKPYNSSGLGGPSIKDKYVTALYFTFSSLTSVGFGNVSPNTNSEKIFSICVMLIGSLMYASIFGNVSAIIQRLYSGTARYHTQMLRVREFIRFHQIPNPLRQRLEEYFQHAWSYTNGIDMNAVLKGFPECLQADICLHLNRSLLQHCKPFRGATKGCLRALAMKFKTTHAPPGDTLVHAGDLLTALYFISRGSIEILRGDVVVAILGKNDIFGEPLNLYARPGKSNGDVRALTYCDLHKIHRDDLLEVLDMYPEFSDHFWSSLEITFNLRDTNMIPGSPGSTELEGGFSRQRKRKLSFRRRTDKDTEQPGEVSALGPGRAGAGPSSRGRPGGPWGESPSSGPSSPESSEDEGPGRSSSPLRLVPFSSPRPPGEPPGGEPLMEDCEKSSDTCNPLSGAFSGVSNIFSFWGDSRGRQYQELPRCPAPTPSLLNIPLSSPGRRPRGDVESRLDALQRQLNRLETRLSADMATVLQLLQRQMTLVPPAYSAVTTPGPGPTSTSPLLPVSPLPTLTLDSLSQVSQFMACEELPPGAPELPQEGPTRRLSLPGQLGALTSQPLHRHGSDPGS

hP2Y14R [3] = target: T1, hP2Y14R (Homo sapiens, UniProt Q15391); conditions: for hP2Y14R affinity in words: hP2Y14R-expressing CHO cells, tracer 2
T1 sequence (Q15391 1-338): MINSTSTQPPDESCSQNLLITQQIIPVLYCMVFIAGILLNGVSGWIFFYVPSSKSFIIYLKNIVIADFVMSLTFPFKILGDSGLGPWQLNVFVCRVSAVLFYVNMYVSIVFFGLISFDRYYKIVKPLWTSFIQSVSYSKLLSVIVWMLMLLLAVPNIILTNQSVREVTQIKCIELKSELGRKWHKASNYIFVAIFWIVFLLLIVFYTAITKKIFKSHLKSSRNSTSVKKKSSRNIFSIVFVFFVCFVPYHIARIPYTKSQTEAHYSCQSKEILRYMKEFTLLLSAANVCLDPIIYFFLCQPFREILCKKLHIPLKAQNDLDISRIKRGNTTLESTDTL

hP2Y14R [4] = target: T1, hP2Y14R; assay: cell-based; conditions: IC50 / affinity at hP2Y14R (μM), hP2Y14R-expressing CHO cells, tracer 2
[5] = system: 46 receptors and channels; assay: PDSP off-target radioligand binding screen; conditions: radioligand binding at 46 receptors and channels
[6] = Lipophilicity based on HPLC retention time; assay type: physicochemical; conditions: relative to 1a
DOR (δ-opioid receptor) = DOR (δ-opioid receptor) (Homo sapiens, UniProt P41143); assay: PDSP radioligand binding, DOR
DOR (δ-opioid receptor), sequence (P41143 whole entry): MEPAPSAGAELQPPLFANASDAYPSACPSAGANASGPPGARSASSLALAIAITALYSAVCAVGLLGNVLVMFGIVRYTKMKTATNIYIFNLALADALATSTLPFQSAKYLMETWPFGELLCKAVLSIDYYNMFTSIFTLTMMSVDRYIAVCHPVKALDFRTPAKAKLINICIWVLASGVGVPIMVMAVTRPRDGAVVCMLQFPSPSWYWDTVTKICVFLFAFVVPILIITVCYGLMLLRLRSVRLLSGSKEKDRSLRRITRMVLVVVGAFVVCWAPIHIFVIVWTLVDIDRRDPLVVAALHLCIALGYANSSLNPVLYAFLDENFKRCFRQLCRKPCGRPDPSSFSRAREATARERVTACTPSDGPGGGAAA

[7] = not given; remark: listed apart in the source
in vivo = conditions: male, Wistar, rat
[8] = system: CCI-induced mechano-allodynia; assay: Chronic constriction injury; conditions: mouse
[9] = system: porcine liver esterase (PLE); assay: Esterase cleavage of prodrugs by porcine liver esterase; conditions: for percent cleavage at 72 h: pH 7.3 aqueous medium, PLE, 37 °C; for half-life at 1 mM: pig, pH 7.3
[10] = male Wistar rats, 1.0 mg kg^−1 i.p.
[11] = male Wistar rats, 3.0 mg kg^−1 i.p.
[12] = male Wistar rats, 10 mg kg^−1 i.p.

Which results are given for O=C(O)c1cc(-c2ccc(C3CCNCC3)cc2)c2ccc(-c3ccc(C(F)(F)F)cc3)cc2c1 [Compound 1a, 4-[4-(4-piperidinyl)phenyl]-7-[4-(trifluoromethyl)phenyl]-2-naphthalene-carboxylic acid]?
solubility in DMSO at 20 mg mL^−1: could not dissolve; effect on chronic pain in the CCI model [1]: effective in reducing chronic pain; eosinophil counts in the BALF / efficacy in asthma model [2]: reduced; IC50 (hERG): > 30 µM

Which results are given for CC(=O)N1CCC(c2ccc(-c3cc(C(=O)O)cc4cc(-c5ccc(C(F)(F)F)cc5)ccc34)cc2)CC1 [Compound 1b, reference compound]?
effect on chronic pain in the CCI model [1]: effective in reducing chronic pain; eosinophil counts in the BALF / efficacy in asthma model [2]: no significant reduction

For CC(=O)Nc1ccc(-c2cc(C(=O)O)cc(-n3cc(-c4ccc(C(F)(F)F)cc4)nn3)c2)cc1 [Compound 8, 4′-Acetamido-5-(4-(4-(trifluoromethyl)phenyl)-1H-1,2,3-triazol-1-yl)-[1,1′-biphenyl]-3-carboxylic Acid], which “hP2Y14R affinity in words” value (hP2Y14R [3]) is on record?
The value was “submicromolar affinity”.

With O=C(O)c1cc(-c2ccc(NC(=O)C3CCNCC3)cc2)cc(-n2cc(-c3ccc(C(F)(F)F)cc3)nn2)c1 [Compound 11, 4′-(Piperidine-4-carboxamido)-5-(4-(4-(trifluoromethyl)phenyl)-1H-1,2,3-triazol-1-yl)-[1,1′-biphenyl]-3-carboxylic Acid] as the compound, how does the “solubility in aqueous medium in words” value (Aqueous solubility) read?
Its value is “poorly soluble in aqueous medium”.

For CC(C)(C)OC(=O)N1CCC(C(=O)Nc2ccc(-c3cc(C(=O)O)cc(-n4cc(-c5ccc(C(F)(F)F)cc5)nn4)c3)cc2)CC1 [Compound 12, 4′-(1-(tert-Butoxycarbonyl)piperidine-4-carboxamido)-5-(4-(4-(trifluoromethyl)phenyl)-1H-1,2,3-triazol-1-yl)-[1,1′-biphenyl]-3-carboxylic Acid], which “fold weaker in binding than the parent amines” value (hP2Y14R [3]; N-Boc protected forms compared to 11 and 18) is on record?
The value was over 100 fold.

Which IC50 (hP2Y14R [4]) does the source give for O=C(O)c1ccc(-c2cc(C(=O)O)cc(-n3cc(-c4ccc(C(F)(F)F)cc4)nn3)c2)cc1 [Compound 13, 5-(4-(4-(Trifluoromethyl)phenyl)-1H-1,2,3-triazol-1-yl)-[1,1′-bi-phenyl]-3,4′-dicarboxylic Acid] here?
Its IC50 is about 0.6 µM.

And the “off-target interactions in the standard PDSP screen” value [5]?
The value was “did not show any off-target interactions”.

Which results are given for NCCCNC(=O)c1ccc(-c2cc(C(=O)O)cc(-n3cc(-c4ccc(C(F)(F)F)cc4)nn3)c2)cc1 [Compound 14, 4′-((3-Aminopropyl)carbamoyl)-5-(4-(4-(trifluoromethyl)-phenyl)-1H-1,2,3-triazol-1-yl)-[1,1′-biphenyl]-3-carboxylic Acid]?
fold lower affinity than thienyl derivative 4 (hP2Y14R [3]; compared to 4): 3.5 fold; hP2Y14R affinity in words (hP2Y14R [3]): submicromolar affinity

Which “hP2Y14R affinity in words” value (hP2Y14R [3]) does the source give for NCCCc1ccc(-c2cc(C(=O)O)cc(-n3cc(-c4ccc(C(F)(F)F)cc4)nn3)c2)cc1 [Compound 18, 4′-(3-Aminopropyl)-5-(4-(4-(trifluoromethyl)phenyl)-1H-1,2,3-triazol-1-yl)-[1,1′-biphenyl]-3-carboxylic Acid] here?
The value was “submicromolar affinity”.

And the “off-target interactions in the standard PDSP screen” value [5]?
Its value is “did not show any off-target interactions”.

Which “hP2Y14R affinity in words” value (hP2Y14R [3]) does the source give for NCC#Cc1ccc(-c2cc(C(=O)O)cc(-n3cc(-c4ccc(C(F)(F)F)cc4)nn3)c2)cc1 [Compound 19, 4′-(3-Aminoprop-1-yn-1-yl)-5-(4-(4-(trifluoromethyl)phenyl)-1H-1,2,3-triazol-1-yl)-[1,1′-biphenyl]-3-carboxylic Acid] here?
The value was “submicromolar affinity”.

What about the “off-target interactions in the standard PDSP screen” value [5] of the same compound?
Its value is “did not show any off-target interactions”.

Which “hP2Y14R affinity in words” value (hP2Y14R [3]) does the source give for O=C(O)c1cc(-c2ccc(CCCCO)cc2)cc(-n2cc(-c3ccc(C(F)(F)F)cc3)nn2)c1 [Compound 21, 4′-(4-Hydroxybutyl)-5-(4-(4-(trifluoromethyl)phenyl)-1H-1,2,3-triazol-1-yl)-[1,1′-biphenyl]-3-carboxylic Acid] here?
The value was “bound weakly”.

Which “hP2Y14R affinity in words” value (hP2Y14R [3]) does the source give for O=C(O)c1cc(-c2ccc(-c3cc(CO)on3)cc2)cc(-n2cc(-c3ccc(C(F)(F)F)cc3)nn2)c1 [Compound 29, 4′-(5-(Hydroxymethyl)isoxazol-3-yl)-5-(4-(4-(trifluoromethyl)-phenyl)-1H-1,2,3-triazol-1-yl)-[1,1′-biphenyl]-3-carboxylic Acid] here?
The value was “submicromolar affinity”.

And the “hydrophilicity gain compared to 1a” value [6]?
The value was −1.06 cLogP units.

What about the Ki (DOR (δ-opioid receptor)) of the same compound?
Its Ki is 6.9 ± 1.9 µM.

Which “hP2Y14R affinity in words” value (hP2Y14R [3]) does the source give for O=C(O)c1cc(-c2ccc(-c3nnn[nH]3)cc2)cc(-n2cc(-c3ccc(C(F)(F)F)cc3)nn2)c1 [Compound 31, 4′-(1H-Tetrazol-5-yl)-5-(4-(4-(trifluoromethyl)phenyl)-1H-1,2,3-triazol-1-yl)-[1,1′-biphenyl]-3-carboxylic Acid] here?
Its value is “submicromolar affinity”.

Which results are given for O=C(O)c1cc(-c2ccc(-c3cc(CO)on3)cc2)c2ccc(-c3ccc(C(F)(F)F)cc3)cc2c1 [Compound 32, 4-(4-(5-(Hydroxymethyl)isoxazol-3-yl)phenyl)-7-(4-(trifluoromethyl)phenyl)-2-naphthoic Acid]?
clinical signs ([7]; all rat groups at all time points (up to 24 h)): normal; Kel (1 h^−1) ([7]; male Wistar rats, 0.5 mg kg^−1 i.v.): 1.01 1 h^−1; Cl [7, 10]: 23.83 mL/min/kg; Kel (1 h^−1) [7, 10]: 0.096 1 h^−1; Vd (mL kg^−1) [7, 10]: 14,900 mL kg^−1; Cl [7, 11]: 23.67 mL/min/kg; Kel (1 h^−1) [7, 11]: 0.148 1 h^−1; Vd [7, 11]: 9.57 L/kg; Cl [7, 12]: 33.83 mL/min/kg; Kel (1 h^−1) [7, 12]: 0.233 1 h^−1; Vd [7, 12]: 8.73 L/kg; peak concentration ([7]; rat, 10 mg kg^−1, i.p., 4 h post-injection): 1.61 µM; hydrophilicity gain compared to 1a [6]: −0.80 cLogP units; eosinophil counts in the BALF / efficacy in asthma model [2]: no significant reduction; AUC(0-t) at 24 h (in vivo; ip, 1 mg/kg): 650 ng·h/mL; Cmax at 24 h (in vivo; ip, 1 mg/kg): 88.4 ng/mL; half-life (in vivo; ip, 1 mg/kg): 7.23 h; AUC(0-inf) at 24 h (in vivo; ip, 3 mg/kg): 2120 ng·h/mL; AUC(0-t) at 24 h (in vivo; ip, 3 mg/kg): 2060 ng·h/mL; Cmax at 24 h (in vivo; ip, 3 mg/kg): 315 ng/mL; half-life at 24 h (in vivo; ip, 3 mg/kg): 4.68 h; AUC(0-inf) at 24 h (in vivo; ip, 10 mg/kg): 4920 ng·h/mL; AUC(0-t) at 24 h (in vivo; ip, 10 mg/kg): 4900 ng·h/mL; Cmax at 24 h (in vivo; ip, 10 mg/kg): 786 ng/mL; half-life at 24 h (in vivo; ip, 10 mg/kg): 2.98 h; AUC(0-inf) at 24 h (in vivo; iv, 0.5 mg/kg): 238 ng·h/mL; AUC(0-t) at 24 h (in vivo; iv, 0.5 mg/kg): 234 ng·h/mL; Cmax at 24 h (in vivo; iv, 0.5 mg/kg): 359 ng/mL; Vd at 24 h (in vivo; iv, 0.5 mg/kg): 2.09 L/kg; clearance at 24 h (in vivo; iv, 0.5 mg/kg): 35.2 mL/min/kg; half-life at 24 h (in vivo; iv, 0.5 mg/kg): 0.689 h; maximal reversal of CCI-induced mechano-allodynia ([8]; 10 μmol kg^−1 (4.9 mg kg^−1), i.p., 1 h post-injection): 71.0 ± 17.4%; side effects ([8]; 10 μmol kg^−1, i.p.): No side effects were evident; protection against CCI-induced mechano-allodynia at 3 or 5 h ([8]; 10 μmol kg^−1, i.p., 3 or 5 h post-injection): not statistically significant

What does the source list for CN(C)C(=O)COC(=O)c1cc(-c2ccc(C3CCNCC3)cc2)cc(-n2cc(-c3ccc(C(F)(F)F)cc3)nn2)c1 [Compound 37a, 2-(Dimethylamino)-2-oxoethyl 4′-(Piperidin-4-yl)-5-(4-(4-(trifluoromethyl)phenyl)-1H-1,2,3-triazol-1-yl)-[1,1′-biphenyl]-3-carboxylate]?
eosinophil counts in the BALF / efficacy in asthma model [2]: lack of in vivo activity; lymphocyte count in the BALF ([2]; 20 μmol kg^−1, i.p.): trended higher than in a vehicle control; number of off-target interactions in the μM range [5]: 18; off-target interactions in the standard PDSP screen [5]: promiscuous in off-target binding

What does the source list for CN(C)C(=O)COC(=O)c1cc(-c2ccc(-c3cc(CO)on3)cc2)c2ccc(-c3ccc(C(F)(F)F)cc3)cc2c1 [Compound 37b, 2-(Dimethylamino)-2-oxoethyl 4-(4-(5-(Hydroxymethyl)isoxazol-3-yl)phenyl)-7-(4-(trifluoromethyl)phenyl)-2-naphthoate]?
percent cleavage at 72 h [9]: < 50%; half-life at 1 mM [9]: > 1.2 h; eosinophil counts in the BALF / efficacy in asthma model [2]: significantly reduced eosinophils; also recorded: highly efficacious

With CC(=O)N1CCC(c2ccc(-c3cc(C(=O)OCC(=O)N(C)C)cc4cc(-c5ccc(C(F)(F)F)cc5)ccc34)cc2)CC1 [Compound 37c, 2-(Dimethylamino)-2-oxoethyl 4-(4-(1-Acetylpiperidin-4-yl)-phenyl)-7-(4-(trifluoromethyl)phenyl)-2-naphthoate] as the compound, how does the “percent cleavage at 72 h” value [9] read?
Its value is under 50%.

And the half-life at 1 mM [9]?
Its half-life at 1 mM is over 1.2 h.

And the “eosinophil counts in the BALF / efficacy in asthma model” value [2]?
Its value is “significantly reduced eosinophils; also recorded: highly efficacious”.
